What was measured:
STK33 = biological target: T1, STK33 (Homo sapiens, UniProt Q9BYT3); assay: Millipore kinase panel; type: biochemical; conditions: read-out: % Control
T1 construct: purchased Millipore KinaseProfiler (kinases); Cerep (receptors and ion channels)

HIPK1 = biological target: T2, HIPK1 (Homo sapiens, UniProt Q86Z02); assay: Millipore kinase panel; type: biochemical; conditions: read-out: % Control
T2 construct: purchased Millipore KinaseProfiler (kinases); Cerep (receptors and ion channels)

PASK = biological target: T3, PASK (Homo sapiens, UniProt Q96RG2); assay: Millipore kinase panel; type: biochemical; conditions: read-out: % Control
T3 construct: purchased Millipore KinaseProfiler (kinases); Cerep (receptors and ion channels)

PKG1BETA = biological target: T4, PKG1BETA (Homo sapiens, UniProt Q13976); assay: Millipore kinase panel; type: biochemical; conditions: read-out: % Control
T4 construct: purchased Millipore

CDK6/CYCLIND3 = biological target: T5, CDK6/CYCLIND3 (Homo sapiens, UniProt Q00534); assay: Millipore kinase panel; type: biochemical; conditions: read-out: % Control
T5 construct: purchased Millipore KinaseProfiler (kinases); Cerep (receptors and ion channels)

KDR = biological target: T6, KDR (Homo sapiens, UniProt P35968); assay: Millipore kinase panel; type: biochemical; conditions: read-out: % Control
T6 construct: purchased Millipore KinaseProfiler (kinases); Cerep (receptors and ion channels)

HIPK2 = biological target: T7, HIPK2 (Homo sapiens, UniProt Q9H2X6); assay: Millipore kinase panel; type: biochemical; conditions: read-out: % Control
T7 construct: purchased Millipore KinaseProfiler (kinases); Cerep (receptors and ion channels)

CLK3 = biological target: T8, CLK3 (Homo sapiens, UniProt P49761); assay: Millipore kinase panel; type: biochemical; conditions: read-out: % Control
T8 construct: purchased Millipore KinaseProfiler (kinases); Cerep (receptors and ion channels)

5-HT5a (h) = biological target: T9, 5-HT5a (h) (Homo sapiens, UniProt P47898); assay: CEREP binding panel; conditions: agonist radioligand, read-out: % Inhibition of Control Specific Binding
T9 construct: purchased Millipore KinaseProfiler (kinases); Cerep (receptors and ion channels)

PKCALPHA = biological target: T10, PKCALPHA (Homo sapiens, UniProt P17252); assay: Millipore kinase panel; type: biochemical; conditions: read-out: % Control
T10 construct: purchased Millipore KinaseProfiler (kinases); Cerep (receptors and ion channels)

GRK7 = biological target: T11, GRK7 (Homo sapiens, UniProt Q8WTQ7); assay: Millipore kinase panel; type: biochemical; conditions: read-out: % Control
T11 construct: purchased Millipore KinaseProfiler (kinases); Cerep (receptors and ion channels)

β2 (h) = biological target: T12, β2 (h) (Homo sapiens, UniProt P07550); assay: CEREP binding panel; conditions: agonist radioligand, read-out: % Inhibition of Control Specific Binding
T12 construct: purchased Millipore KinaseProfiler (kinases); Cerep (receptors and ion channels)

NEK6 = biological target: T13, NEK6 (Homo sapiens, UniProt Q9HC98); assay: Millipore kinase panel; type: biochemical; conditions: read-out: % Control
T13 construct: purchased Millipore KinaseProfiler (kinases); Cerep (receptors and ion channels)

LCK = biological target: T14, LCK (Homo sapiens, UniProt P06239); assay: Millipore kinase panel; type: biochemical; conditions: read-out: % Control
T14 construct: purchased Millipore

5-HT3 (h) = biological target: T15, 5-HT3 (h) (Homo sapiens, UniProt P46098); assay: CEREP binding panel; conditions: antagonist radioligand, read-out: % Inhibition of Control Specific Binding
T15 construct: purchased Millipore KinaseProfiler (kinases); Cerep (receptors and ion channels)

CHK1 = biological target: T16, CHK1 (Homo sapiens, UniProt O14757); assay: Millipore kinase panel; type: biochemical; conditions: read-out: % Control
T16 construct: purchased Millipore KinaseProfiler (kinases); Cerep (receptors and ion channels)

α2 (non-selective) = assay: CEREP binding panel; conditions: 10 μM, antagonist radioligand
ARK5 = biological target: T17, ARK5 (Homo sapiens, UniProt O60285); assay: Millipore kinase panel; type: biochemical; conditions: read-out: % Control
T17 construct: purchased Millipore KinaseProfiler (kinases); Cerep (receptors and ion channels)

NEK7 = biological target: T18, NEK7 (Homo sapiens, UniProt Q8TDX7); assay: Millipore kinase panel; type: biochemical; conditions: read-out: % Control
T18 construct: purchased Millipore KinaseProfiler (kinases); Cerep (receptors and ion channels)

MELK = biological target: T19, MELK (Homo sapiens, UniProt Q14680); assay: Millipore kinase panel; type: biochemical; conditions: read-out: % Control
T19 construct: purchased Millipore KinaseProfiler (kinases); Cerep (receptors and ion channels)

CDK9/CYCLINT1 = biological target: T20, CDK9/CYCLINT1 (Homo sapiens, UniProt P50750); assay: Millipore kinase panel; type: biochemical; conditions: read-out: % Control
T20 construct: purchased Millipore KinaseProfiler (kinases); Cerep (receptors and ion channels)

DAPK1 = biological target: T21, DAPK1 (Homo sapiens, UniProt P53355); assay: Millipore kinase panel; type: biochemical; conditions: read-out: % Control
T21 construct: purchased Millipore KinaseProfiler (kinases); Cerep (receptors and ion channels)

PRKAA1 = biological target: T22, PRKAA1 (Homo sapiens, UniProt Q13131); assay: Millipore kinase panel; type: biochemical; conditions: read-out: % Control
T22 construct: purchased Millipore KinaseProfiler (kinases); Cerep (receptors and ion channels)

H2 (h) = biological target: T23, H2 (h) (Homo sapiens, UniProt P25021); assay: CEREP binding panel; conditions: antagonist radioligand, read-out: % Inhibition of Control Specific Binding
T23 construct: purchased Millipore KinaseProfiler (kinases); Cerep (receptors and ion channels)

ASK1 = biological target: T24, ASK1 (Homo sapiens, UniProt Q99683); assay: Millipore kinase panel; type: biochemical; conditions: read-out: % Control
T24 construct: purchased Millipore KinaseProfiler (kinases); Cerep (receptors and ion channels)

WNK2 = biological target: T25, WNK2 (Homo sapiens, UniProt Q9Y3S1); assay: Millipore kinase panel; type: biochemical; conditions: read-out: % Control
T25 construct: purchased Millipore KinaseProfiler (kinases); Cerep (receptors and ion channels)

SRC = biological target: T26, SRC (Homo sapiens, UniProt P12931); assay: Millipore kinase panel; type: biochemical; conditions: read-out: % Control
T26 construct: purchased Millipore KinaseProfiler (kinases); Cerep (receptors and ion channels)

FGFR1 = biological target: T27, FGFR1 (Homo sapiens, UniProt P11362); assay: Millipore kinase panel; type: biochemical; conditions: read-out: % Control
T27 construct: purchased Millipore KinaseProfiler (kinases); Cerep (receptors and ion channels)

RIPK2 = biological target: T28, RIPK2 (Homo sapiens, UniProt O43353); assay: Millipore kinase panel; type: biochemical; conditions: read-out: % Control
T28 construct: purchased Millipore KinaseProfiler (kinases); Cerep (receptors and ion channels)

TRKB = biological target: T29, TRKB (Homo sapiens, UniProt Q16620); assay: Millipore kinase panel; type: biochemical; conditions: read-out: % Control
T29 construct: purchased Millipore KinaseProfiler (kinases); Cerep (receptors and ion channels)

ALK = biological target: T30, ALK (Homo sapiens, UniProt Q9UM73); assay: Millipore kinase panel; type: biochemical; conditions: read-out: % Control
T30 construct: purchased Millipore KinaseProfiler (kinases); Cerep (receptors and ion channels)

CAMKIIBETA = biological target: T31, CAMKIIBETA (Homo sapiens, UniProt Q13554); assay: Millipore kinase panel; type: biochemical; conditions: read-out: % Control
T31 construct: purchased Millipore KinaseProfiler (kinases); Cerep (receptors and ion channels)

CB1 (h) = biological target: T32, CB1 (h) (Homo sapiens, UniProt P21554); assay: CEREP binding panel; conditions: agonist radioligand, read-out: % Inhibition of Control Specific Binding
T32 construct: purchased Millipore KinaseProfiler (kinases); Cerep (receptors and ion channels)

RON = biological target: T33, RON (Homo sapiens, UniProt Q04912); assay: Millipore kinase panel; type: biochemical; conditions: read-out: % Control
T33 construct: purchased Millipore KinaseProfiler (kinases); Cerep (receptors and ion channels)

NLK = biological target: T34, NLK (Homo sapiens, UniProt Q9UBE8); assay: Millipore kinase panel; type: biochemical; conditions: read-out: % Control
T34 construct: purchased Millipore KinaseProfiler (kinases); Cerep (receptors and ion channels)

SAPK3 = biological target: T35, SAPK3 (Homo sapiens, UniProt P53778); assay: Millipore kinase panel; type: biochemical; conditions: read-out: % Control
T35 construct: purchased Millipore KinaseProfiler (kinases); Cerep (receptors and ion channels)

LIMK1 = biological target: T36, LIMK1 (Homo sapiens, UniProt P53667); assay: Millipore kinase panel; type: biochemical; conditions: read-out: % Control
T36 construct: purchased Millipore KinaseProfiler (kinases); Cerep (receptors and ion channels)

CK2 = biological target: T37, CK2 (Homo sapiens, UniProt P68400); assay: Millipore kinase panel; type: biochemical; conditions: read-out: % Control
T37 construct: purchased Millipore KinaseProfiler (kinases); Cerep (receptors and ion channels)

GRK5 = biological target: T38, GRK5 (Homo sapiens, UniProt P34947); assay: Millipore kinase panel; type: biochemical; conditions: read-out: % Control
T38 construct: purchased Millipore KinaseProfiler (kinases); Cerep (receptors and ion channels)

RSK1 = biological target: T39, RSK1 (Homo sapiens, UniProt Q15418); assay: Millipore kinase panel; type: biochemical; conditions: read-out: % Control
T39 construct: purchased Millipore KinaseProfiler (kinases); Cerep (receptors and ion channels)

VRK2 = biological target: T40, VRK2 (Homo sapiens, UniProt Q86Y07); assay: Millipore kinase panel; type: biochemical; conditions: read-out: % Control
T40 construct: purchased Millipore KinaseProfiler (kinases); Cerep (receptors and ion channels)

MSK1 = biological target: T41, MSK1 (Homo sapiens, UniProt O75582); assay: Millipore kinase panel; type: biochemical; conditions: read-out: % Control
T41 construct: purchased Millipore KinaseProfiler (kinases); Cerep (receptors and ion channels)

PKA = biological target: T42, PKA (Homo sapiens, UniProt P17612); assay: Millipore kinase panel; type: biochemical; conditions: read-out: % Control
T42 construct: purchased Millipore KinaseProfiler (kinases); Cerep (receptors and ion channels)

μ (MOP) (h) = biological target: T43, μ (MOP) (h) (Homo sapiens, UniProt P35372); assay: CEREP binding panel; conditions: agonist radioligand, read-out: % Inhibition of Control Specific Binding
T43 construct: purchased Millipore KinaseProfiler (kinases); Cerep (receptors and ion channels)

T15 sequence (P46098 24-478): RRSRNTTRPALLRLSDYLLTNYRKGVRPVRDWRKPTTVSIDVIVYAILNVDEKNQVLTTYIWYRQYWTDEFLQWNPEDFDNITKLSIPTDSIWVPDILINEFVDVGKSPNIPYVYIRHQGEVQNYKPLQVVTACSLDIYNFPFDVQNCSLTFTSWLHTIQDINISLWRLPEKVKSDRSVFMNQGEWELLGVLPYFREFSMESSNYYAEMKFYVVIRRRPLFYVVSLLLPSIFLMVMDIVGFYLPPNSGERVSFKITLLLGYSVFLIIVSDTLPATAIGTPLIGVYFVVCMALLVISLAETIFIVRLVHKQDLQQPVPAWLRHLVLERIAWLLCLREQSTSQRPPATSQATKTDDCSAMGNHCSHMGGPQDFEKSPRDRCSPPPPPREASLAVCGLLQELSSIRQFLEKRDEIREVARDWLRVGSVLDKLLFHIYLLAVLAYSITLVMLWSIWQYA
T5 sequence (Q00534 whole entry): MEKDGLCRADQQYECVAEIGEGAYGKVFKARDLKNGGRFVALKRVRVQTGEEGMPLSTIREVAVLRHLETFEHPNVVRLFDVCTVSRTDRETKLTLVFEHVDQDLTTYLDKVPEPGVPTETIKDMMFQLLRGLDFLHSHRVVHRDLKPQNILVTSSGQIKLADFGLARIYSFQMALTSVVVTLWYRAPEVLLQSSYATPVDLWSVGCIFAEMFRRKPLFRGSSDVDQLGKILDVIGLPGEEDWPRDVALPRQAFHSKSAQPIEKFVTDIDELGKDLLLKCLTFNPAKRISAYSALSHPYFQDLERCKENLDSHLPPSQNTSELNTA
T5 sequence (P30281 whole entry partner): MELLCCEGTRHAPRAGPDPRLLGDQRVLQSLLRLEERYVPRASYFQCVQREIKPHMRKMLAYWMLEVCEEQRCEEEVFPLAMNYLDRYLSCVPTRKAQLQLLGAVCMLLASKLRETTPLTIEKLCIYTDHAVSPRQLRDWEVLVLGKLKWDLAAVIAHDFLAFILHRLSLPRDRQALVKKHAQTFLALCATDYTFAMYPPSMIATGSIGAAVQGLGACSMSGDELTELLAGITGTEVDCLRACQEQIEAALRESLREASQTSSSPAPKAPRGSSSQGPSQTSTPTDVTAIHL
T22 sequence (Q13131 whole entry): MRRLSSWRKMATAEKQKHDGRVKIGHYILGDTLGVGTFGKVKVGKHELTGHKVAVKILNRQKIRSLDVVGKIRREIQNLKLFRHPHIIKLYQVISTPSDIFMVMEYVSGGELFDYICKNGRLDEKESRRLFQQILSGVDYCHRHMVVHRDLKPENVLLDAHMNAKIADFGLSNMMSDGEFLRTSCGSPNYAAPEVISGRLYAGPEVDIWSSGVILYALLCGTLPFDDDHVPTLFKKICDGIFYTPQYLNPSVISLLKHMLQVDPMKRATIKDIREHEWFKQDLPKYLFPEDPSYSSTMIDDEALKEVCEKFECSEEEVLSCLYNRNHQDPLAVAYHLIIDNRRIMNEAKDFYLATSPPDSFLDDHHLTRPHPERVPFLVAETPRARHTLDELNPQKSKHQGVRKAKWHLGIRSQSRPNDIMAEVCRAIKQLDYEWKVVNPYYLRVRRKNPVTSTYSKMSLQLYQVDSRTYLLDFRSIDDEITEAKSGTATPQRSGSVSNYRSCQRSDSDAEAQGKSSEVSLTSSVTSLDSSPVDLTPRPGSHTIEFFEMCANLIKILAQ
T22 sequence (Q9Y478 whole entry partner): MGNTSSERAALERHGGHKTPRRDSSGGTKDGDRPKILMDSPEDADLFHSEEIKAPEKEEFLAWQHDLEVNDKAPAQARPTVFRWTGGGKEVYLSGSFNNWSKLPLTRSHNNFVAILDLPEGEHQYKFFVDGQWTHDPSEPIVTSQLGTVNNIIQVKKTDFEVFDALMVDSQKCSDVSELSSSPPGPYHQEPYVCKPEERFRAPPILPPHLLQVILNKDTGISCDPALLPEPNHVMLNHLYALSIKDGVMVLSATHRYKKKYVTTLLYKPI
T22 sequence (P54619 whole entry partner): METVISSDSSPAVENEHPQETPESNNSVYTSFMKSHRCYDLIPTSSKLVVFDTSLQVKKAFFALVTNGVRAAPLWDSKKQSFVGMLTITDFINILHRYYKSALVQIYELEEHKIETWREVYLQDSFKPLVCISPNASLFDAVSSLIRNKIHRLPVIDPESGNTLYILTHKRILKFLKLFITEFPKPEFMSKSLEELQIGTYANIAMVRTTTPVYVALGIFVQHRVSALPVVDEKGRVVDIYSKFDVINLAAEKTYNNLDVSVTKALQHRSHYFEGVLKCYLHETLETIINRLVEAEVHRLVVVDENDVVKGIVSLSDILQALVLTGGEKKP
T20 sequence (P50750 whole entry): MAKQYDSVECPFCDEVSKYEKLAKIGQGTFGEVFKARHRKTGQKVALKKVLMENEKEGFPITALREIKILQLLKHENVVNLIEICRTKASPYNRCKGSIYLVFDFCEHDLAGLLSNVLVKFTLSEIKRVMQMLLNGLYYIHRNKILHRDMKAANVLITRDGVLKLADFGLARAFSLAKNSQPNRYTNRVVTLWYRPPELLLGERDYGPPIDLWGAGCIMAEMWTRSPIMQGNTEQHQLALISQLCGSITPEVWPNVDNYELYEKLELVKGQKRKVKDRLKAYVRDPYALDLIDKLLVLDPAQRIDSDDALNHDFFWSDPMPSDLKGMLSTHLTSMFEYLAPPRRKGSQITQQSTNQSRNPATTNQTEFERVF
T20 sequence (O60563 whole entry partner): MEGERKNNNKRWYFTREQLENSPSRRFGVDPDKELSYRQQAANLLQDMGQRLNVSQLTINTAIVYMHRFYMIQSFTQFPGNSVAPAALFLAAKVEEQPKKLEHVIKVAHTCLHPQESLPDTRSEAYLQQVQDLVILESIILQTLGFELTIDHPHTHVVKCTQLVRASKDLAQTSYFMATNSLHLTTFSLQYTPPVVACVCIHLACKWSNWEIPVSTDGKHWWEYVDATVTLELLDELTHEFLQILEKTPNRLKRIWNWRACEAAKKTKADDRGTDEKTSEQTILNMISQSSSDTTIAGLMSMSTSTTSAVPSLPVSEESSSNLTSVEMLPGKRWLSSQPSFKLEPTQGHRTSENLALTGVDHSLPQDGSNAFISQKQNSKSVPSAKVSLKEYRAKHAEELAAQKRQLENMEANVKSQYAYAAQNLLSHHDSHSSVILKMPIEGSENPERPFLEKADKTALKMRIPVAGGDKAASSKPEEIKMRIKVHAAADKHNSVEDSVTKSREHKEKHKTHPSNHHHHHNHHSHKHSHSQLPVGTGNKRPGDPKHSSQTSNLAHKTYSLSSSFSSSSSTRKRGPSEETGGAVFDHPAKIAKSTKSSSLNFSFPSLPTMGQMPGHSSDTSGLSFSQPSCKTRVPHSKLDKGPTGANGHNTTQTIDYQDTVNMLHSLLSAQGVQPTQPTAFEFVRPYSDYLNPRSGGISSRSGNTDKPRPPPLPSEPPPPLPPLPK
T31 sequence (Q13554 whole entry): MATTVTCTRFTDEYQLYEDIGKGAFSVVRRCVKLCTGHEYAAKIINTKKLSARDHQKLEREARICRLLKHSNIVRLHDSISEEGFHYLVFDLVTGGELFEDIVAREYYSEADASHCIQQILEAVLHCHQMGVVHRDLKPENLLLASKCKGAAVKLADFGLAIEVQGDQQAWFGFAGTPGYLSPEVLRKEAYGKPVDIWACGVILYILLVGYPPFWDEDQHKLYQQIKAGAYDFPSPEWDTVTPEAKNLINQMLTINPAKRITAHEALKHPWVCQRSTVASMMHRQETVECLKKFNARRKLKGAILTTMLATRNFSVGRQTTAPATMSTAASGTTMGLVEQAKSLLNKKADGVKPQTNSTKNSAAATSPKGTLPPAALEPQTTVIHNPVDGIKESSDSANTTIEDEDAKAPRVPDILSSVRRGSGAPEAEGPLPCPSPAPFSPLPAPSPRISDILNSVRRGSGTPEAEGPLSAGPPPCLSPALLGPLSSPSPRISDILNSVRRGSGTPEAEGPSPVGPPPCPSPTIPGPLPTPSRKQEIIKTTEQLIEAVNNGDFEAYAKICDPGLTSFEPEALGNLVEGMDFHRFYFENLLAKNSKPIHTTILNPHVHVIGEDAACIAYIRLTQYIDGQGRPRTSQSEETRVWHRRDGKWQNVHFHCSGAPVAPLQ
T16 sequence (O14757 whole entry): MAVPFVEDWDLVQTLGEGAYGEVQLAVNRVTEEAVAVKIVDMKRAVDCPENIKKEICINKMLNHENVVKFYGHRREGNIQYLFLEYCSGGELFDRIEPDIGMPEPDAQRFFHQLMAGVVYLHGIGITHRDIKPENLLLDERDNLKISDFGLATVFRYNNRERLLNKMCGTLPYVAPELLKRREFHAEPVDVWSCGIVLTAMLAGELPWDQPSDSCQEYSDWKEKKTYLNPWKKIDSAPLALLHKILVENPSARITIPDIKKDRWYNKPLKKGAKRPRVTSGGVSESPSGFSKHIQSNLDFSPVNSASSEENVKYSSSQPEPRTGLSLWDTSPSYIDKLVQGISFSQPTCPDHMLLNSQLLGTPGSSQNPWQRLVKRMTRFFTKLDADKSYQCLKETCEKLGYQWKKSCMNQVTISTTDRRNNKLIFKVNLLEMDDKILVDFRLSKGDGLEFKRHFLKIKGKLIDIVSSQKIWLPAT
T8 sequence (P49761 whole entry): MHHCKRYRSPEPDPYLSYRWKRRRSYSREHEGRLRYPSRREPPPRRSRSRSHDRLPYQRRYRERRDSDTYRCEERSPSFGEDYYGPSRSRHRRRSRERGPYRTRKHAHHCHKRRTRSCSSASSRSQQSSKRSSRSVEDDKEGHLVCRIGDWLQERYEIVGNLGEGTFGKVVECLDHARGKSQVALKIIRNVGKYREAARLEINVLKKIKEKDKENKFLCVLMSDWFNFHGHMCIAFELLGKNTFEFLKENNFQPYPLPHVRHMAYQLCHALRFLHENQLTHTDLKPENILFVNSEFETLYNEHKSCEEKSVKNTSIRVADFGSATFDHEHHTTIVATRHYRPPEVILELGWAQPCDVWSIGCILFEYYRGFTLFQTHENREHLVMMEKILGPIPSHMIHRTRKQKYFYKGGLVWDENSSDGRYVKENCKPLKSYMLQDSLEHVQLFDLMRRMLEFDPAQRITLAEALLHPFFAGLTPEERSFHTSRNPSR

Work on O=C1NCCC12CCN(c1c(Cl)cncc1-c1ccc(N3CCOCC3)cc1)CC2 [Compound 44, 8-(3-Chloro-5-(4-morpholin-4-ylphenyl)pyridin-4-yl)-2,8-diazaspiro[4.5]decan-1-one] yielded a remaining activity at 1 µM (STK33) of 4%, a remaining activity at 1 µM (HIPK1) of 7% and a remaining activity at 1 µM (PASK) of 1%. The remaining activity at 1 µM (PKG1BETA) was -4%, the remaining activity at 1 µM (CDK6/CYCLIND3) was 7% and the remaining activity at 1 µM (KDR) was 21%. It also gave a remaining activity at 1 µM (HIPK2) of 2%, a remaining activity at 1 µM (CLK3) of 0% and an inhibition at 10 µM (5-HT5a (h)) of 11%. For the same compound, the remaining activity at 1 µM (PKCALPHA) was -5%, the remaining activity at 1 µM (GRK7) was -2% and the inhibition at 10 µM (β2 (h)) was -3%. It also gave a remaining activity at 1 µM (NEK6) of -4%, a remaining activity at 1 µM (LCK) of 13% and an inhibition at 10 µM (5-HT3 (h)) of -3%. The remaining activity at 1 µM (CHK1) was -7%, the “% Inhibition of Control Specific Binding” value (α2 (non-selective)) was -1% and the remaining activity at 1 µM (ARK5) was -2%. It also gave a remaining activity at 1 µM (NEK7) of -7%, a remaining activity at 1 µM (MELK) of -19% and a remaining activity at 1 µM (CDK9/CYCLINT1) of -24%. For the same compound, the remaining activity at 1 µM (DAPK1) was 0%, the remaining activity at 1 µM (PRKAA1) was 15% and the inhibition at 10 µM (H2 (h)) was -16%. For the same compound, the remaining activity at 1 µM (ASK1) was -1%, the remaining activity at 1 µM (WNK2) was -4% and the remaining activity at 1 µM (SRC) was 4%. It also gave a remaining activity at 1 µM (FGFR1) of 13%, a remaining activity at 1 µM (RIPK2) of 3% and a remaining activity at 1 µM (TRKB) of 2%. The remaining activity at 1 µM (ALK) was -6%, the remaining activity at 1 µM (CAMKIIBETA) was 0% and the inhibition at 10 µM (CB1 (h)) was 1%. The remaining activity at 1 µM (RON) was 13%, the remaining activity at 1 µM (NLK) was 17% and the remaining activity at 1 µM (SAPK3) was 35%. It also gave a remaining activity at 1 µM (LIMK1) of -3%, a remaining activity at 1 µM (CK2) of 12% and a remaining activity at 1 µM (GRK5) of 0%. The remaining activity at 1 µM (RSK1) was 2%, the remaining activity at 1 µM (VRK2) was -5% and the remaining activity at 1 µM (MSK1) was 18%. The remaining activity at 1 µM (PKA) was 5% and the inhibition at 10 µM (μ (MOP) (h)) was 9%.

— article PMC4767141, “Discovery of Potent, Orally Bioavailable, Small-Molecule Inhibitors of WNT Signaling from a Cell-Based Pathway Screen” (Journal of Medicinal Chemistry, 2015)
